Here are results for 55 compounds from ChEMBL document CHEMBL1165992, “A statistical analysis of in vitro human microsomal metabolic stability of small phenyl group substituents, leading to improved design sets for parallel SAR exploration of a chemical series” (Bioorg Med Chem, 2010).

One series can be described thus: in vitro. The settings on record: human.
Series [1] concerns the target 11-beta-hydroxysteroid dehydrogenase 1 (Homo sapiens, UniProt P28845). The series can be described thus: Inhibition of human 11beta-HSD1 by competitive binding assay.

Sequence of 11-beta-hydroxysteroid dehydrogenase 1 (P28845 whole entry): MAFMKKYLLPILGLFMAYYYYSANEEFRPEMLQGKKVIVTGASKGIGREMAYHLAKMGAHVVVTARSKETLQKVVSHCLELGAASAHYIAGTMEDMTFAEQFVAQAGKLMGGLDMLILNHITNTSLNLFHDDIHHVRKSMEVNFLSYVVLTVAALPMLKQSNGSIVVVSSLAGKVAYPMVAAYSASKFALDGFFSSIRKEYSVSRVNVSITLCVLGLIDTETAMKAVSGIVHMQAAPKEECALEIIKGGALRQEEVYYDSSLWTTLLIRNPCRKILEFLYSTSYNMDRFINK
Description for in vitro: Intrinsic clearance in human liver microsomes assessed per mg of microsomal protein at 0.2 to 1 uM after 30 mins by HPLC analysis

In general, microsomal CLint refers to the capacity of the preparation to metabolise the compound, expressed as a volume cleared per time. Take `O=C(c1ccc(F)cc1)C1CCN(C(=O)c2ccc([N+](=O)[O-])cc2)CC1`: in “in vitro” (liver microsomes), the microsomal CLint at 0.5 h, 1 µM came out at 9 µL/min/mg.

`Cc1cccc(C(=O)N2CCC(C(=O)c3ccc(F)cc3)CC2)c1`: in “in vitro” (liver microsomes), the intrinsic clearance (microsomal CLint) at 0.5 h, 1 µM worked out at 43.6 µL/min/mg.

The compound `O=C(c1ccc(F)cc1)C1CCN(C(=O)c2ccc(Cl)c(C(F)(F)F)c2)CC1` yielded a microsomal CLint at 0.5 h, 1 µM in “in vitro” (liver microsomes) of 11.5 µL/min/mg. Same read-out and setting: to `CCN(C(=O)NCc1cccc(F)c1)C1CCN(CCC(c2ccccc2)c2ccccc2)CC1` belongs 86 µL/min/mg. The compound `O=C(c1ccc(F)cc1)C1CCN(C(=O)c2ccc(F)cc2Cl)CC1` gave a microsomal CLint at 0.5 h, 1 µM in the series “in vitro” (liver microsomes) of 18 µL/min/mg. `O=C(c1ccc(F)cc1)C1CCN(C(=O)c2cccc([N+](=O)[O-])c2)CC1`: the microsomal CLint at 0.5 h, 1 µM in “in vitro” (liver microsomes) was 5.3 µL/min/mg. Compound `O=C(c1ccc(F)cc1)C1CCN(C(=O)c2ccccc2Cl)CC1` had a microsomal CLint at 0.5 h, 1 µM in “in vitro” (liver microsomes) of 32.6 µL/min/mg.

For the compound `O=C(c1ccc(F)cc1)C1CCN(C(=O)c2ccc(C(F)(F)F)cc2)CC1`, in the series “in vitro” (liver microsomes), the microsomal CLint at 0.5 h, 1 µM worked out at 15.5 µL/min/mg. The term IC50 denotes the concentration that gives 50% inhibition. Read a high IC50 as a need for much substance. On to `Cc1ccc(C(=O)N2CCC(C(=O)c3ccc(F)cc3)CC2)cc1`, for which the IC50 in series [1] is 3.41 µM. For the same compound, the microsomal CLint at 0.5 h, 1 µM in the series “in vitro” (liver microsomes) was determined as 41.8 µL/min/mg.

For the compound `O=C(c1ccc(F)cc1)C1CCN(C(=O)c2cccc(C(F)(F)F)c2)CC1`, the microsomal CLint at 0.5 h, 1 µM in “in vitro” (liver microsomes) stood at 13.7 µL/min/mg.

In “in vitro” (liver microsomes), `CCN(C(=O)NCc1c(F)cccc1F)C1CCN(CCC(c2ccccc2)c2ccccc2)CC1` gave an intrinsic clearance (microsomal CLint) at 0.5 h, 1 µM of 6 µL/min/mg. Regarding `N#Cc1cccc(C(=O)N2CCC(C(=O)c3ccc(F)cc3)CC2)c1`, the IC50 in series [1] was above 30 µM. In the series “in vitro” (liver microsomes), this compound yielded a microsomal CLint at 0.5 h, 1 µM of 14.5 µL/min/mg. For the compound `O=C(c1ccc(F)cc1)C1CCN(C(=O)c2ccccc2)CC1`, the IC50 in series [1] stood at 3.61 µM. Besides, in “in vitro” (liver microsomes), the microsomal CLint at 0.5 h, 1 µM was 23 µL/min/mg. Regarding `COc1cccc(C(=O)N2CCC(C(=O)c3ccc(F)cc3)CC2)c1OC`, in “in vitro” (liver microsomes), the microsomal CLint at 0.5 h, 1 µM is 14.9 µL/min/mg. Consider `O=C(c1ccc(F)cc1)C1CCN(C(=O)c2ccc(-c3ccccc3)cc2)CC1`, for which the microsomal CLint at 0.5 h, 1 µM in the series “in vitro” (liver microsomes) was 4.93 µL/min/mg. In the series “in vitro” (liver microsomes), `CCN(C(=O)NCc1ccc(S(C)(=O)=O)cc1)C1CCN(CCC(c2ccc(F)cc2)C2CCN(Cc3cccnc3)CC2)CC1` (configuration not stated) registered a microsomal CLint at 0.5 h, 1 µM of 5 µL/min/mg. In the series “in vitro” (liver microsomes), `CN(C)c1cccc(C(=O)N2CCC(C(=O)c3ccc(F)cc3)CC2)c1` showed an intrinsic clearance (microsomal CLint) at 0.5 h, 1 µM of 53.5 µL/min/mg. As to `COc1ccc(C(=O)N2CCC(C(=O)c3ccc(F)cc3)CC2)c(OC)c1`, in “in vitro” (liver microsomes), the microsomal CLint at 0.5 h, 1 µM was determined as 15.8 µL/min/mg. For the compound `CCN(C(=O)NCc1ccccc1F)C1CCN(CCC(c2ccccc2)c2ccccc2)CC1`, the microsomal CLint at 0.5 h, 1 µM in the series “in vitro” (liver microsomes) came out at 74 µL/min/mg. As for `Cc1ccccc1C(=O)N1CCC(C(=O)c2ccc(F)cc2)CC1`, the microsomal CLint at 0.5 h, 1 µM in the series “in vitro” (liver microsomes) was 23.5 µL/min/mg. In series [1], `O=C(c1ccc(F)cc1)C1CCN(C(=O)c2ccccc2F)CC1` displayed an IC50 of 7.44 µM. In the series “in vitro” (liver microsomes), this compound yielded a microsomal CLint at 0.5 h, 1 µM of 46.5 µL/min/mg.

The compound `O=C(c1ccc(F)cc1)C1CCN(C(=O)c2ccc(F)cc2)CC1` returned an IC50 in series [1] of 21.8 µM. Further, the microsomal CLint at 0.5 h, 1 µM in “in vitro” (liver microsomes) amounted to 17.1 µL/min/mg.

Take `N#Cc1ccc(C(=O)N2CCC(C(=O)c3ccc(F)cc3)CC2)cc1`: the 50% inhibitory concentration (IC50) in series [1] was above 30 µM. The compound also registered a microsomal CLint at 0.5 h, 1 µM in the series “in vitro” (liver microsomes) of 11.7 µL/min/mg. In the case of `CS(=O)(=O)c1cccc(C(=O)N2CCC(C(=O)c3ccc(F)cc3)CC2)c1`, the IC50 in series [1] is above 30 µM. In “in vitro” (liver microsomes), this compound yielded a microsomal CLint at 0.5 h, 1 µM of 11.4 µL/min/mg. The like results for `O=C(c1ccc(F)cc1)C1CCN(C(=O)c2ccc(Cl)cc2)CC1` were, in that order, 6.02 µM and 18.6 µL/min/mg. Compound `O=C(c1ccc(F)cc1)C1CCN(C(=O)c2cc(F)cc(F)c2)CC1` had a 50% inhibitory concentration (IC50) in series [1] above 30 µM. This compound also registered a microsomal CLint at 0.5 h, 1 µM in “in vitro” (liver microsomes) of 25.3 µL/min/mg. For `CS(=O)(=O)c1ccc(C(=O)N2CCC(C(=O)c3ccc(F)cc3)CC2)cc1` the same measures were above 30 µM and 12.4 µL/min/mg.

For `CS(=O)(=O)Nc1cccc(C(=O)N2CCC(C(=O)c3ccc(F)cc3)CC2)c1`, the IC50 in series [1] was above 30 µM. Also, the microsomal CLint at 0.5 h, 1 µM in “in vitro” (liver microsomes) is 9.23 µL/min/mg.

For the compound `CCN(C(=O)NCc1ccc(S(C)(=O)=O)cc1)C1CCN(CCC(c2ccc(F)cc2)C2CCN(Cc3ccc4ccccc4n3)CC2)CC1` (configuration not stated), the microsomal CLint at 0.5 h, 1 µM in “in vitro” (liver microsomes) came to 3 µL/min/mg. `CC(=O)c1ccc(C(=O)N2CCC(C(=O)c3ccc(F)cc3)CC2)cc1`: the microsomal CLint at 0.5 h, 1 µM in “in vitro” (liver microsomes) was 19.8 µL/min/mg. Compound `NS(=O)(=O)c1cccc(C(=O)N2CCC(C(=O)c3ccc(F)cc3)CC2)c1` registered an IC50 in series [1] above 30 µM. The compound further showed a microsomal CLint at 0.5 h, 1 µM in “in vitro” (liver microsomes) of 13 µL/min/mg. With `COc1cccc(C(=O)N2CCC(C(=O)c3ccc(F)cc3)CC2)c1`, the microsomal CLint at 0.5 h, 1 µM in “in vitro” (liver microsomes) is 12.9 µL/min/mg. Same read-out and setting: the same measure for `CCN(C(=O)NCc1ccc(S(C)(=O)=O)cc1)C1CCN(CCC(c2ccccc2)C2CCN(Cc3ccc4ccccc4n3)CC2)CC1` (configuration not stated): above 150 µL/min/mg; for `O=C(c1ccc(F)cc1)C1CCN(C(=O)c2ccc(N3CCOCC3)cc2)CC1`: 15.2 µL/min/mg. The compound `O=C(c1ccc(F)cc1)C1CCN(C(=O)c2ccccc2OC(F)(F)F)CC1` returned a microsomal CLint at 0.5 h, 1 µM in “in vitro” (liver microsomes) of 16.9 µL/min/mg. Compound `O=C(c1ccc(F)cc1)C1CCN(C(=O)c2ccc(OC(F)(F)F)cc2)CC1` gave a microsomal CLint at 0.5 h, 1 µM in “in vitro” (liver microsomes) of 17.9 µL/min/mg. For `NS(=O)(=O)c1ccc(C(=O)N2CCC(C(=O)c3ccc(F)cc3)CC2)cc1`, the IC50 in series [1] is above 30 µM. In addition, the microsomal CLint at 0.5 h, 1 µM in “in vitro” (liver microsomes) turned out to be 12.3 µL/min/mg. `O=C(c1ccc(F)cc1)C1CCN(C(=O)c2ccc(Cl)c(Cl)c2)CC1` had a microsomal CLint at 0.5 h, 1 µM in “in vitro” (liver microsomes) of 16.5 µL/min/mg.

In turn, `CCN(C(=O)NCc1cc(F)cc(F)c1)C1CCN(CCC(c2ccccc2)c2ccccc2)CC1` gave a microsomal CLint at 0.5 h, 1 µM in the series “in vitro” (liver microsomes) below 3 µL/min/mg. `O=C(c1ccc(F)cc1)C1CCN(C(=O)c2cccc(OC(F)(F)F)c2)CC1`: in “in vitro” (liver microsomes), the microsomal CLint at 0.5 h, 1 µM worked out at 31.8 µL/min/mg. Consider `O=C(c1ccc(F)cc1)C1CCN(C(=O)c2cccc(F)c2F)CC1`, for which the IC50 in series [1] is above 30 µM. In the series “in vitro” (liver microsomes), this compound came in with a microsomal CLint at 0.5 h, 1 µM of 18 µL/min/mg. In turn, `O=C(c1ccc(F)cc1)C1CCN(C(=O)c2ccc(Cl)cc2Cl)CC1` yielded an IC50 in series [1] above 30 µM. This compound also showed an intrinsic metabolic clearance (microsomal CLint) at 0.5 h, 1 µM in the series “in vitro” (liver microsomes) of 41.2 µL/min/mg. `O=C(c1ccc(F)cc1)C1CCN(C(=O)c2cccc(Cl)c2)CC1` showed a microsomal CLint at 0.5 h, 1 µM in the series “in vitro” (liver microsomes) of 22.2 µL/min/mg. Regarding `CCN(C(=O)NCc1ccc(S(C)(=O)=O)cc1)C1CCN(CCC(c2ccccc2)C2CCN(Cc3cccnc3)CC2)CC1` (configuration not stated), in the series “in vitro” (liver microsomes), the microsomal CLint at 0.5 h, 1 µM was above 150 µL/min/mg. `Nc1ccccc1C(=O)N1CCC(C(=O)c2ccc(F)cc2)CC1` showed an intrinsic clearance (microsomal CLint) at 0.5 h, 1 µM in the series “in vitro” (liver microsomes) of 15.6 µL/min/mg. Turning to `COc1ccc(C(=O)N2CCC(C(=O)c3ccc(F)cc3)CC2)cc1`, in series [1], the IC50 was determined as 15.8 µM. Also, the intrinsic metabolic clearance (microsomal CLint) at 0.5 h, 1 µM in “in vitro” (liver microsomes) is 22.6 µL/min/mg. Take `COc1ccccc1C(=O)N1CCC(C(=O)c2ccc(F)cc2)CC1`: the IC50 in series [1] came to 23.6 µM. Moreover, the microsomal CLint at 0.5 h, 1 µM in “in vitro” (liver microsomes) was 14.3 µL/min/mg. In turn, `Cc1ncc(-c2ccnc(Nc3ccccc3)n2)n1C(C)C` registered a microsomal CLint at 0.5 h, 1 µM in “in vitro” (liver microsomes) of 63.5 µL/min/mg. In the case of `CCN(C(=O)NCc1ccc(F)cc1)C1CCN(CCC(c2ccccc2)c2ccccc2)CC1`, the intrinsic metabolic clearance (microsomal CLint) at 0.5 h, 1 µM in the series “in vitro” (microsomes) was 105 µL/min/mg. `O=C(c1ccc(F)cc1)C1CCN(C(=O)c2ccc(Br)cc2)CC1` returned a microsomal CLint at 0.5 h, 1 µM in “in vitro” (liver microsomes) of 22.7 µL/min/mg. The compound `CCN(C(=O)NCc1cc(F)ccc1F)C1CCN(CCC(c2ccccc2)c2ccccc2)CC1` gave an intrinsic clearance (microsomal CLint) at 0.5 h, 1 µM in the series “in vitro” (liver microsomes) below 4 µL/min/mg.

Regarding `O=C(c1ccc(F)cc1)C1CCN(C(=O)c2ccc(F)c(F)c2)CC1`, the microsomal CLint at 0.5 h, 1 µM in the series “in vitro” (liver microsomes) was determined as 12.5 µL/min/mg.

As for `O=C(c1ccc(F)cc1)C1CCN(C(=O)c2cccc(Br)c2)CC1`, the intrinsic metabolic clearance (microsomal CLint) at 0.5 h, 1 µM in “in vitro” (liver microsomes) was 19.3 µL/min/mg. Still for that read-out and setting: the same measure for `O=C(c1ccc(F)cc1)C1CCN(C(=O)c2cccc(F)c2)CC1`: 31.9 µL/min/mg; for `N#Cc1ccccc1C(=O)N1CCC(C(=O)c2ccc(F)cc2)CC1`: 28.4 µL/min/mg.
